Here are results for two compounds from patent US20210267981A1, “COMPOUNDS FOR THE TREATMENT OF HIV INFECTION AND OTHER DISEASES CAUSED BY RNA VIRUSES” (UNIVERSIDAD CATOLICA DE VALENCIA "SAN VICENTE MARTIR", priority 2018, published 2021).

Structures are written as SMILES. Where two headings read alike, the source gives them in different places.

Assay [1] concerns complete RRE-Rev complex. Put plainly: Electrophoretic mobility shift assay (EMSA) of complete RRE-Rev complex formation. It counts as binding, HIV-1. The procedure:
Electrophoretic Mobility Shift Assays (EMSA).
These experiments used 78 nM of complete RRE, 1.32 μM of complete Rev, and increasing concentrations of each compound, and were carried out and analyzed as described previously in the state of the art (Prado et al., Biochem Pharmacol 107 (2016) 14-28; Fang et al., Cell 155(3) (2013) 594-605). The IC50 values were determined by measuring the area and the intensity of the band corresponding to free RRE. These experiments were performed at least three times for each compound.
The capacity of the compounds to inhibit IIB-Rev34-50 interaction was evaluated by means of an assay based on the detection, by means of fluorescence anisotropy (FA), of the shift of an FITC-labeled Rev34-50 peptide from its binding site in subdomain IIB of RRE. The capacity of the compounds to inhibit the formation of the RRE-Rev complex was evaluated by means of an electrophoretic mobility shift assay (EMSA).
On the technique in general: A gel shift assay detects complexes by their altered migration in electrophoresis.

Assay [2] relates to complete HIV-1 (NL4.3-luc). Put plainly: Cell transfection assay, full-length HIV-1 luciferase plasmid (NL4.3-luc) in MT-2 cells. In kind it is cell-based. On the procedure:
Cell Transfection Assays.
MT-2 cells were transfected with plasmids containing a luciferase reporter gene the expression of which was under the control of the complete HIV-1 (NL4.3-luc) or HIV-1 LTR promoter (LTR-Luc). After transfection, the cells were treated with different compound concentrations, and the luciferase activity in the cell lysates was quantified 48 h later (Prado et al., Biochem Pharmacol 107 (2016) 14-28; Gonzalez-Bulnes et al., Angewandte Chemie-International Edition 52(50) (2013) 13405-13409).
In order to identify the target or the set of targets of the tested compounds, an assay based on the transfection of a full-length HIV-1 vector is performed. In this experiment, the entry, reverse transcription, and DNA integration phases of the viral cycle are sidestepped, such that only transcriptional or post-transcriptional events which can be blocked by the inhibitor under study are produced.

The test system of assay [3] is HIV-1 RNA transcripts (RRE-Rev system in a cellular context). Put plainly: HIV-1 RNA processing analysis by RT-qPCR in MT-2 cells transfected with pNL4.3. In kind it is cell-based. Conditions: 5 and 10 μM. The procedure:
HIV-1 RNA Processing Analysis.
MT-2 cells, previously treated for 72 or 96 hours with two different concentrations (5 and 10 μM) of compound 1a or 2a, were transfected with a pNL4.3 plasmid. Total cellular RNA was then isolated, treated with DNase I, and reverse transcribed as described in the state of the art (Prado et al., Biochem Pharmacol 107 (2016) 14-28). The unprocessed, semi-processed, and completely processed HIV-1 RNA transcripts were quantified by means of qPCR in relation to an untreated control obtained, using primers described by Mohammadi et al. (PLoS Pathog 9(1) (2013) e1003161), and GAPDH as endogenous control.
Whether or not compounds 1a and 2a acted in the RRE-Rev system in a cellular context was then verified. After transfecting the cells with a full-length proviral vector, the amounts of unprocessed, semi-processed, and completely processed HIV-1 RNA transcripts were quantified by means of RT-qPCR in the absence and presence of each compound (Prado et al., Biochem Pharmacol 107 (2016) 14-28). Given that Rev indirectly puts the splicing process at a disadvantage by transporting unprocessed or semi-processed viral transcripts from the nucleus to the cytoplasm, the blocking of the RRE-Rev system should increase the levels of completely processed species and reduce the amount of unprocessed or semi-processed HIV-1 transcripts.
On the technique in general: In qPCR the cycle at which signal appears reflects the starting amount.

The test system of assay [4] is IIBh RNA. Put plainly: NMR spectroscopy of compound binding to IIBh RNA. Conditions: increasing ligand:RNA molar ratios. The arrangement: species or system HIV-1. On the procedure:
The NMR spectra were acquired in a 500 MHz Bruker Avance spectrometer and analyzed with Topspin 3.5 (Bruker Biospin, Billerica, USA). The interaction between the tested compounds and IIBh RNA samples dissolved at a concentration of 40-60 μM were monitored as described previously in the state of the art (Prado et al., Biochem Pharmacol 107 (2016) 14-28; Gonzalez-Bulnes et al., Angewandte Chemie-International Edition 52(50) (2013) 13405-13409), using one-dimensional and two-dimensional experiments (TOCSY) at increasing ligand:RNA molar ratios.
NMR spectroscopy is then used for identifying the binding sites in the IIBh fork of the compounds. […] This compound altered the signals of residues C9, A19, C20, and U23 comprising the Rev binding site, but also disrupted the signals of the double-helix stems flanking the loop. 2a and 2b required a higher drug:RNA molar ratio to induce changes in the signals of IIBh RNA.

Setting [5] is: Human immunodeficiency virus 1, MT2, 48 h, read-out: EC50 of transfection, HIV.
[6] abbreviates: Human immunodeficiency virus 1, MT2, read-out: EC50 transfection assay of full-length HIV-1 vector.

By EC50 is commonly meant the concentration at which the effect is half-maximal. Turning to `CN(C)CCOc1cc2c(c3ccccc13)-c1ccccc1C2=O` [Compound 1a], the “concentrations at which formation of RRE-Rev complexes with an unusual molecular weight was promoted” value in assay [1] was “greater than 10 μM”. Also, the EC50 in assay [2] (setting [5]) is 2.5 µM. In addition, in assay [2] (setting [6]), the EC50 lay within 2.5 to 3.3 µM. For the same compound, in assay [3], the “effect on pattern of unprocessed, semi-processed and completely processed HIV-1 RNA transcripts” value is recorded as “This effect was clearly observed”; the “levels of viral transcripts in relation to untreated cells” value is “significant reduction in the levels of viral transcripts”. For the same compound, the “changes of IIBh RNA NMR signals” value in assay [4] is “widened or altered the chemical shift of IIBh resonances at low drug:RNA molar ratios”.
Usually IC50 stands for the point on the concentration scale where inhibition reaches its midpoint. Turning to `Fc1nc(N2CCNCC2)c(F)c(Sc2ccc(Cl)cc2)c1F` [Compound 2a], the IC50 in assay [1] (78 nM RRE and 1.32 μM Rev, two independent experiments) turned out to be 4.7 µM. Moreover, the EC50 in assay [2] (setting [5]) was found to be 3.3 µM. Also, the EC50 in assay [2] (setting [6]) fell in the range of 2.5 to 3.3 µM. Further, in assay [3], the “effect on pattern of unprocessed, semi-processed and completely processed HIV-1 RNA transcripts” value is listed as “did not induce clear changes in the patterns of unprocessed viral transcripts with respect to processed viral transcripts”; the “levels of viral transcripts in relation to untreated cells” value is recorded as “reduced the amount of viral transcripts to a lesser extent with respect to 1a”. Further, the “changes of IIBh RNA NMR signals” value in assay [4] is “affected the signals of residues located in the stems flanking the internal loop”.
